# Results taken from patent US20250115595A1, “INHIBITORS OF HYPOXIA-INDUCIBLE FACTORS” (The Johns Hopkins University, priority 2021, published 2025).
# System: cytokine mRNAs
# Assay: RT-qPCR array of mouse cytokines and chemokines in Hepa1-6 tumors
# Type: in vivo
# Procedure: Total RNA from Hepa1-6 tumors was analyzed using the RT2 Profiler PCR Array of Mouse Cytokines and Chemokines (Qiagen, catalog number 330231 PAMM-150ZA) according to the manufacturer's instructions.
# [1] = array of 84 cytokines and chemokines
compound,measurement,setting,value
"Brc1ccc2c(-c3csc(-c4c[nH]c5c(Br)cccc45)n3)c[nH]c2c1 [Compound 32-134D, 4-(6-bromo-1H-indol-3-yl)-2-(7-bromo-1H-indol-3-yl)thiazole]",Mstn mRNA Fold Up- or Down-Regulation Test Group/Control Group,"Hepa1-6 tumors, vs vehicle",−4.85
same,Mstn mRNA X axis (Log2(fold change)),"Hepa1-6 tumors, vs vehicle",−2.28
same,Nodal mRNA Fold Change Test Group/Control Group,"Hepa1-6 tumors, vs vehicle",0.29
same,Nodal mRNA Fold Up- or Down-Regulation Test Group/Control Group,"Hepa1-6 tumors, vs vehicle",−3.43
same,Nodal mRNA X axis (Log2(fold change)),"Hepa1-6 tumors, vs vehicle",−1.78
same,Osm mRNA Fold Change Test Group/Control Group,"Hepa1-6 tumors, vs vehicle",0.38
same,Osm mRNA Fold Up- or Down-Regulation Test Group/Control Group,"Hepa1-6 tumors, vs vehicle",−2.65
same,Osm mRNA X axis (Log2(fold change)),"Hepa1-6 tumors, vs vehicle",−1.40
same,Pf4 mRNA Fold Change Test Group/Control Group,"Hepa1-6 tumors, vs vehicle",0.68
same,Pf4 mRNA Fold Up- or Down-Regulation Test Group/Control Group,"Hepa1-6 tumors, vs vehicle",−1.47
same,Pf4 mRNA X axis (Log2(fold change)),"Hepa1-6 tumors, vs vehicle",−0.56
same,Ppbp mRNA Fold Change Test Group/Control Group,"Hepa1-6 tumors, vs vehicle",0.64
same,Ppbp mRNA Fold Up- or Down-Regulation Test Group/Control Group,"Hepa1-6 tumors, vs vehicle",−1.56
same,Ppbp mRNA X axis (Log2(fold change)),"Hepa1-6 tumors, vs vehicle",−0.65
same,Spp1 mRNA Fold Change Test Group/Control Group,"Hepa1-6 tumors, vs vehicle",1.71
same,Spp1 mRNA Fold Up- or Down-Regulation Test Group/Control Group,"Hepa1-6 tumors, vs vehicle",1.71
same,Spp1 mRNA X axis (Log2(fold change)),"Hepa1-6 tumors, vs vehicle",0.77
same,Tgfb2 mRNA Fold Change Test Group/Control Group,"Hepa1-6 tumors, vs vehicle",0.74
same,Tgfb2 mRNA Fold Up- or Down-Regulation Test Group/Control Group,"Hepa1-6 tumors, vs vehicle",−1.36
same,Tgfb2 mRNA X axis (Log2(fold change)),"Hepa1-6 tumors, vs vehicle",−0.44
same,Thpo mRNA Fold Change Test Group/Control Group,"Hepa1-6 tumors, vs vehicle",0.55
same,Thpo mRNA Fold Up- or Down-Regulation Test Group/Control Group,"Hepa1-6 tumors, vs vehicle",−1.82
same,Thpo mRNA X axis (Log2(fold change)),"Hepa1-6 tumors, vs vehicle",−0.87
same,Tnf mRNA Fold Change Test Group/Control Group,"Hepa1-6 tumors, vs vehicle",0.25
same,Tnf mRNA Fold Up- or Down-Regulation Test Group/Control Group,"Hepa1-6 tumors, vs vehicle",−4.00
same,Tnf mRNA X axis (Log2(fold change)),"Hepa1-6 tumors, vs vehicle",−2.00
same,Tnfrsf11b mRNA Fold Change Test Group/Control Group,"Hepa1-6 tumors, vs vehicle",0.25
same,Tnfrsf11b mRNA Fold Up- or Down-Regulation Test Group/Control Group,"Hepa1-6 tumors, vs vehicle",−4.07
same,Tnfrsf11b mRNA X axis (Log2(fold change)),"Hepa1-6 tumors, vs vehicle",−2.02
same,Tnfsf10 mRNA Fold Change Test Group/Control Group,"Hepa1-6 tumors, vs vehicle",1.02
same,Tnfsf10 mRNA Fold Up- or Down-Regulation Test Group/Control Group,"Hepa1-6 tumors, vs vehicle",1.02
same,Tnfsf10 mRNA X axis (Log2(fold change)),"Hepa1-6 tumors, vs vehicle",0.03
same,Tnfsf11 mRNA Fold Change Test Group/Control Group,"Hepa1-6 tumors, vs vehicle",0.38
same,Tnfsf11 mRNA Fold Up- or Down-Regulation Test Group/Control Group,"Hepa1-6 tumors, vs vehicle",−2.61
same,Tnfsf11 mRNA X axis (Log2(fold change)),"Hepa1-6 tumors, vs vehicle",−1.39
same,Tnfsf13b mRNA Fold Change Test Group/Control Group,"Hepa1-6 tumors, vs vehicle",0.88
same,Tnfsf13b mRNA Fold Up- or Down-Regulation Test Group/Control Group,"Hepa1-6 tumors, vs vehicle",−1.13
same,Tnfsf13b mRNA X axis (Log2(fold change)),"Hepa1-6 tumors, vs vehicle",−0.18
same,Vegfa mRNA Fold Change Test Group/Control Group,"Hepa1-6 tumors, vs vehicle",0.40
same,Vegfa mRNA Fold Up- or Down-Regulation Test Group/Control Group,"Hepa1-6 tumors, vs vehicle",−2.52
same,Vegfa mRNA X axis (Log2(fold change)),"Hepa1-6 tumors, vs vehicle",−1.33
same,Xcl1 mRNA Fold Change Test Group/Control Group,"Hepa1-6 tumors, vs vehicle",1.47
same,Xcl1 mRNA Fold Up- or Down-Regulation Test Group/Control Group,"Hepa1-6 tumors, vs vehicle",1.47
same,Xcl1 mRNA X axis (Log2(fold change)),"Hepa1-6 tumors, vs vehicle",0.56
same,lfna2 mRNA Fold Change Test Group/Control Group,"Hepa1-6 tumors, vs vehicle",0.26
same,lfna2 mRNA Fold Up- or Down-Regulation Test Group/Control Group,"Hepa1-6 tumors, vs vehicle",−3.85
same,lfna2 mRNA X axis (Log2(fold change)),"Hepa1-6 tumors, vs vehicle",−1.95
same,lfng mRNA Fold Change Test Group/Control Group,"Hepa1-6 tumors, vs vehicle",1.63
same,lfng mRNA Fold Up- or Down-Regulation Test Group/Control Group,"Hepa1-6 tumors, vs vehicle",1.63
same,lfng mRNA X axis (Log2(fold change)),"Hepa1-6 tumors, vs vehicle",0.70
same,ll1a mRNA Fold Change Test Group/Control Group,"Hepa1-6 tumors, vs vehicle",0.68
same,ll1a mRNA Fold Up- or Down-Regulation Test Group/Control Group,"Hepa1-6 tumors, vs vehicle",−1.47
same,ll1a mRNA X axis (Log2(fold change)),"Hepa1-6 tumors, vs vehicle",−0.56
same,ll1b mRNA Fold Change Test Group/Control Group,"Hepa1-6 tumors, vs vehicle",0.34
same,ll1b mRNA Fold Up- or Down-Regulation Test Group/Control Group,"Hepa1-6 tumors, vs vehicle",−2.92
same,ll1b mRNA X axis (Log2(fold change)),"Hepa1-6 tumors, vs vehicle",−1.55
same,ll1rn mRNA Fold Change Test Group/Control Group,"Hepa1-6 tumors, vs vehicle",0.68
same,ll1rn mRNA Fold Up- or Down-Regulation Test Group/Control Group,"Hepa1-6 tumors, vs vehicle",−1.47
same,ll1rn mRNA X axis (Log2(fold change)),"Hepa1-6 tumors, vs vehicle",−0.56
same,ll2 mRNA Fold Change Test Group/Control Group,"Hepa1-6 tumors, vs vehicle",0.30
same,ll2 mRNA Fold Up- or Down-Regulation Test Group/Control Group,"Hepa1-6 tumors, vs vehicle",−3.37
same,ll2 mRNA X axis (Log2(fold change)),"Hepa1-6 tumors, vs vehicle",−1.75
same,ll3 mRNA Fold Change Test Group/Control Group,"Hepa1-6 tumors, vs vehicle",0.36
same,ll3 mRNA Fold Up- or Down-Regulation Test Group/Control Group,"Hepa1-6 tumors, vs vehicle",−2.77
same,ll3 mRNA X axis (Log2(fold change)),"Hepa1-6 tumors, vs vehicle",−1.47
same,ll4 mRNA Fold Change Test Group/Control Group,"Hepa1-6 tumors, vs vehicle",0.34
same,ll4 mRNA Fold Up- or Down-Regulation Test Group/Control Group,"Hepa1-6 tumors, vs vehicle",−2.91
same,ll4 mRNA X axis (Log2(fold change)),"Hepa1-6 tumors, vs vehicle",−1.54
same,ll5 mRNA Fold Change Test Group/Control Group,"Hepa1-6 tumors, vs vehicle",0.42
same,ll5 mRNA Fold Up- or Down-Regulation Test Group/Control Group,"Hepa1-6 tumors, vs vehicle",−2.39
same,ll5 mRNA X axis (Log2(fold change)),"Hepa1-6 tumors, vs vehicle",−1.26
same,ll6 mRNA Fold Change Test Group/Control Group,"Hepa1-6 tumors, vs vehicle",0.34
same,ll6 mRNA Fold Up- or Down-Regulation Test Group/Control Group,"Hepa1-6 tumors, vs vehicle",−2.95
same,ll6 mRNA X axis (Log2(fold change)),"Hepa1-6 tumors, vs vehicle",−1.56
same,ll7 mRNA Fold Change Test Group/Control Group,"Hepa1-6 tumors, vs vehicle",0.97
same,ll7 mRNA Fold Up- or Down-Regulation Test Group/Control Group,"Hepa1-6 tumors, vs vehicle",−1.04
same,ll7 mRNA X axis (Log2(fold change)),"Hepa1-6 tumors, vs vehicle",−0.05
same,ll9 mRNA Fold Change Test Group/Control Group,"Hepa1-6 tumors, vs vehicle",0.27
same,ll9 mRNA Fold Up- or Down-Regulation Test Group/Control Group,"Hepa1-6 tumors, vs vehicle",−3.69
same,ll9 mRNA X axis (Log2(fold change)),"Hepa1-6 tumors, vs vehicle",−1.88
same,ll10 mRNA Fold Change Test Group/Control Group,"Hepa1-6 tumors, vs vehicle",0.23
same,ll10 mRNA Fold Up- or Down-Regulation Test Group/Control Group,"Hepa1-6 tumors, vs vehicle",−4.42
same,ll10 mRNA X axis (Log2(fold change)),"Hepa1-6 tumors, vs vehicle",−2.14
same,ll11 mRNA Fold Change Test Group/Control Group,"Hepa1-6 tumors, vs vehicle",0.24
same,ll11 mRNA Fold Up- or Down-Regulation Test Group/Control Group,"Hepa1-6 tumors, vs vehicle",−4.12
same,ll11 mRNA X axis (Log2(fold change)),"Hepa1-6 tumors, vs vehicle",−2.04
same,ll12a mRNA Fold Change Test Group/Control Group,"Hepa1-6 tumors, vs vehicle",0.48
same,ll12a mRNA Fold Up- or Down-Regulation Test Group/Control Group,"Hepa1-6 tumors, vs vehicle",−2.07
same,ll12a mRNA X axis (Log2(fold change)),"Hepa1-6 tumors, vs vehicle",−1.05
same,ll12b mRNA Fold Change Test Group/Control Group,"Hepa1-6 tumors, vs vehicle",0.29
same,ll12b mRNA Fold Up- or Down-Regulation Test Group/Control Group,"Hepa1-6 tumors, vs vehicle",−3.51
same,ll12b mRNA X axis (Log2(fold change)),"Hepa1-6 tumors, vs vehicle",−1.81
same,ll13 mRNA Fold Change Test Group/Control Group,"Hepa1-6 tumors, vs vehicle",0.32
same,ll13 mRNA Fold Up- or Down-Regulation Test Group/Control Group,"Hepa1-6 tumors, vs vehicle",−3.14
same,ll13 mRNA X axis (Log2(fold change)),"Hepa1-6 tumors, vs vehicle",−1.65
same,ll15 mRNA Fold Change Test Group/Control Group,"Hepa1-6 tumors, vs vehicle",0.84
same,ll15 mRNA Fold Up- or Down-Regulation Test Group/Control Group,"Hepa1-6 tumors, vs vehicle",1.19
same,ll15 mRNA X axis (Log2(fold change)),"Hepa1-6 tumors, vs vehicle",−0.25
same,ll16 mRNA Fold Change Test Group/Control Group,"Hepa1-6 tumors, vs vehicle",0.53
same,ll16 mRNA Fold Up- or Down-Regulation Test Group/Control Group,"Hepa1-6 tumors, vs vehicle",−1.90
same,ll16 mRNA X axis (Log2(fold change)),"Hepa1-6 tumors, vs vehicle",−0.93
same,ll17a mRNA Fold Change Test Group/Control Group,"Hepa1-6 tumors, vs vehicle",0.33
same,ll17a mRNA Fold Up- or Down-Regulation Test Group/Control Group,"Hepa1-6 tumors, vs vehicle",−3.00
same,ll17a mRNA X axis (Log2(fold change)),"Hepa1-6 tumors, vs vehicle",−1.59
same,ll17f mRNA Fold Change Test Group/Control Group,"Hepa1-6 tumors, vs vehicle",0.75
same,ll17f mRNA Fold Up- or Down-Regulation Test Group/Control Group,"Hepa1-6 tumors, vs vehicle",−1.33
same,ll17f mRNA X axis (Log2(fold change)),"Hepa1-6 tumors, vs vehicle",−0.41
same,ll18 mRNA Fold Change Test Group/Control Group,"Hepa1-6 tumors, vs vehicle",0.89
same,ll18 mRNA Fold Up- or Down-Regulation Test Group/Control Group,"Hepa1-6 tumors, vs vehicle",−1.13
same,ll18 mRNA X axis (Log2(fold change)),"Hepa1-6 tumors, vs vehicle",−0.17
same,ll21 mRNA Fold Change Test Group/Control Group,"Hepa1-6 tumors, vs vehicle",0.29
same,ll21 mRNA Fold Up- or Down-Regulation Test Group/Control Group,"Hepa1-6 tumors, vs vehicle",−3.46
same,ll21 mRNA X axis (Log2(fold change)),"Hepa1-6 tumors, vs vehicle",−1.79
same,ll22 mRNA Fold Change Test Group/Control Group,"Hepa1-6 tumors, vs vehicle",0.37
same,ll22 mRNA Fold Up- or Down-Regulation Test Group/Control Group,"Hepa1-6 tumors, vs vehicle",−2.67
same,ll22 mRNA X axis (Log2(fold change)),"Hepa1-6 tumors, vs vehicle",−1.42
same,ll23a mRNA Fold Change Test Group/Control Group,"Hepa1-6 tumors, vs vehicle",0.44
same,ll23a mRNA Fold Up- or Down-Regulation Test Group/Control Group,"Hepa1-6 tumors, vs vehicle",−2.25
same,ll23a mRNA X axis (Log2(fold change)),"Hepa1-6 tumors, vs vehicle",−1.17
same,ll24 mRNA Fold Change Test Group/Control Group,"Hepa1-6 tumors, vs vehicle",0.43
same,ll24 mRNA Fold Up- or Down-Regulation Test Group/Control Group,"Hepa1-6 tumors, vs vehicle",−2.34
same,ll24 mRNA X axis (Log2(fold change)),"Hepa1-6 tumors, vs vehicle",−1.23
same,ll27 mRNA Fold Change Test Group/Control Group,"Hepa1-6 tumors, vs vehicle",0.46
same,ll27 mRNA Fold Up- or Down-Regulation Test Group/Control Group,"Hepa1-6 tumors, vs vehicle",−2.19
same,ll27 mRNA X axis (Log2(fold change)),"Hepa1-6 tumors, vs vehicle",−1.13
same,number of mRNAs with decreased expression,[1],40 mRNAs
same,number of mRNAs with increased expression,[1],5 mRNAs
